Data from the NIST ThermoML archive (doi:10.1021/je8001305).

Assay: xn = mol fraction of the nth substance listed
Conditions: Liquid, Vibrating tube method

CC(C)O [propan-2-ol] + O
Conditions	mass density [kg/m3]
300.08 K, 7 kPa, x1 = 0.2483	895.51
300.08 K, 7.3 kPa, x1 = 0.7258	805.5
300.08 K, 88.2 kPa, x1 = 0.7258	805.57
300.08 K, 146.2 kPa, x1 = 0.2483	895.5
300.08 K, 303 kPa, x1 = 0.7258	805.78
300.08 K, 381.3 kPa, x1 = 0.2483	895.67
300.08 K, 565.1 kPa, x1 = 0.7258	806
300.08 K, 764.9 kPa, x1 = 0.2483	895.89
300.08 K, 1101.1 kPa, x1 = 0.2483	896.11
300.08 K, 1126.2 kPa, x1 = 0.7258	806.42
300.08 K, 1556.8 kPa, x1 = 0.2483	896.32
300.08 K, 1702.5 kPa, x1 = 0.7258	806.92
300.08 K, 1921.9 kPa, x1 = 0.2483	896.56
300.08 K, 2181.5 kPa, x1 = 0.2483	896.86
300.08 K, 2239.8 kPa, x1 = 0.7258	807.33
300.08 K, 2610.1 kPa, x1 = 0.2483	897.09
300.08 K, 2722.7 kPa, x1 = 0.7258	807.73
300.08 K, 3080.5 kPa, x1 = 0.2483	897.32
300.08 K, 3196 kPa, x1 = 0.7258	808.11
300.08 K, 3522.3 kPa, x1 = 0.2483	897.58
300.08 K, 3715.6 kPa, x1 = 0.7258	808.53
300.08 K, 4082.6 kPa, x1 = 0.2483	897.87
300.08 K, 4231.5 kPa, x1 = 0.7258	808.93
300.08 K, 4587.1 kPa, x1 = 0.7258	809.31
300.08 K, 4663.3 kPa, x1 = 0.2483	898.17
300.08 K, 5151.3 kPa, x1 = 0.2483	898.42
300.08 K, 5314.6 kPa, x1 = 0.7258	809.85
300.08 K, 5562.5 kPa, x1 = 0.2483	898.65
300.08 K, 5793.2 kPa, x1 = 0.7258	810.24
300.08 K, 5980.5 kPa, x1 = 0.2483	898.85
300.08 K, 6301.2 kPa, x1 = 0.7258	810.63
300.08 K, 6414.3 kPa, x1 = 0.2483	899.11
300.08 K, 6754.8 kPa, x1 = 0.2483	899.33
300.08 K, 6783.9 kPa, x1 = 0.7258	811.02
300.08 K, 7246.8 kPa, x1 = 0.2483	899.56
300.08 K, 7297.6 kPa, x1 = 0.7258	811.43
300.08 K, 7636.7 kPa, x1 = 0.2483	899.78
300.08 K, 7804.4 kPa, x1 = 0.7258	811.81
300.08 K, 8131.6 kPa, x1 = 0.2483	900.04
300.08 K, 8342.2 kPa, x1 = 0.7258	812.23
300.08 K, 8662.8 kPa, x1 = 0.2483	900.28
300.08 K, 8818 kPa, x1 = 0.7258	812.6
300.08 K, 9087.3 kPa, x1 = 0.2483	900.54
300.08 K, 9330.1 kPa, x1 = 0.7258	813
300.08 K, 9562.3 kPa, x1 = 0.2483	900.79
300.08 K, 9918.9 kPa, x1 = 0.7258	813.45
300.1 K, 7.2 kPa, x1 = 0.4939	837.98
300.1 K, 233.4 kPa, x1 = 0.4939	838.18
300.1 K, 503 kPa, x1 = 0.4939	838.33
300.1 K, 946.6 kPa, x1 = 0.4939	838.71
300.1 K, 1545.3 kPa, x1 = 0.4939	839.06
300.1 K, 1902.2 kPa, x1 = 0.4939	839.36
300.1 K, 2303.5 kPa, x1 = 0.4939	839.65
300.1 K, 2724.6 kPa, x1 = 0.4939	839.96
300.1 K, 3136.5 kPa, x1 = 0.4939	840.26
300.1 K, 3567.9 kPa, x1 = 0.4939	840.56
300.1 K, 3995.8 kPa, x1 = 0.4939	840.87
300.1 K, 4436.2 kPa, x1 = 0.4939	841.18
300.1 K, 4835.5 kPa, x1 = 0.4939	841.48
300.1 K, 5262 kPa, x1 = 0.4939	841.77
300.1 K, 5699.8 kPa, x1 = 0.4939	842.07
300.1 K, 6161 kPa, x1 = 0.4939	842.39
300.1 K, 6588.4 kPa, x1 = 0.4939	842.68
300.1 K, 7053 kPa, x1 = 0.4939	843
300.1 K, 7437.9 kPa, x1 = 0.4939	843.28
300.1 K, 7862 kPa, x1 = 0.4939	843.57
300.1 K, 8248.5 kPa, x1 = 0.4939	843.86
300.1 K, 8704.4 kPa, x1 = 0.4939	844.15
300.1 K, 9260.6 kPa, x1 = 0.4939	844.49
300.1 K, 9966.4 kPa, x1 = 0.4939	845.04
325.09 K, 28.6 kPa, x1 = 0.4939	814.94
325.09 K, 65.4 kPa, x1 = 0.4939	814.96
325.09 K, 303 kPa, x1 = 0.4939	815.2
325.09 K, 645.3 kPa, x1 = 0.4939	815.47
325.09 K, 1004.8 kPa, x1 = 0.4939	815.8
325.09 K, 1391.9 kPa, x1 = 0.4939	816.13
325.09 K, 1788.1 kPa, x1 = 0.4939	816.48
325.09 K, 2242 kPa, x1 = 0.4939	816.83
325.09 K, 2881.1 kPa, x1 = 0.4939	817.33
325.09 K, 3904.6 kPa, x1 = 0.4939	818.19
325.09 K, 4242.1 kPa, x1 = 0.4939	818.51
325.09 K, 4784.4 kPa, x1 = 0.4939	818.94
325.09 K, 5116.8 kPa, x1 = 0.4939	819.26
325.09 K, 5507.3 kPa, x1 = 0.4939	819.61
325.09 K, 5912.2 kPa, x1 = 0.4939	819.93
325.09 K, 6322.1 kPa, x1 = 0.4939	820.28
325.09 K, 6773 kPa, x1 = 0.4939	820.6
325.09 K, 7214.5 kPa, x1 = 0.4939	820.97
325.09 K, 7613.3 kPa, x1 = 0.4939	821.31
325.09 K, 8080.5 kPa, x1 = 0.4939	821.7
325.09 K, 8603.1 kPa, x1 = 0.4939	822.11
325.09 K, 9197.3 kPa, x1 = 0.4939	822.51
325.09 K, 9561.4 kPa, x1 = 0.4939	822.86
325.1 K, 27.3 kPa, x1 = 0.2483	874.07
325.1 K, 72.6 kPa, x1 = 0.2483	874.13
325.1 K, 410.3 kPa, x1 = 0.2483	874.37
325.1 K, 962.1 kPa, x1 = 0.2483	874.71
325.1 K, 1343 kPa, x1 = 0.2483	875.01
325.1 K, 1859.5 kPa, x1 = 0.2483	875.37
325.1 K, 2332.6 kPa, x1 = 0.2483	875.6
325.1 K, 2826.4 kPa, x1 = 0.2483	875.91
325.1 K, 3319.4 kPa, x1 = 0.2483	876.24
325.1 K, 3776.3 kPa, x1 = 0.2483	876.52
325.1 K, 4236.7 kPa, x1 = 0.2483	876.83
